The values below come from patent US5753664A, “Heterocyclic compounds, their production and use” (Takeda Chemical Industries, Ltd., priority 1995, dated 1998).

The subject of assay [1] is human prostatic carcinoma cells PC-3. Briefly: Inhibitory action against the growth of subcutaneously implanted tumor (Test Example 2, subcutaneous dosing). The assay is classed as in vivo, human; BALB/c nu/nu mouse. Particulars: 80 mg/kg s.c., Mon/Wed/Fri for 3 weeks; for Tumor volume gain: 46th day after transplantation, mean ± SD; for T/C: 46th day, ratio of tumor volume gain treated/control. How it is done:
Inhibitory action of the test compounds against the growth of subcutaneously implanted tumor
The human prostatic carcinoma cells PC-3, which are maintained in vitro, were harvested using 0.05% trypsin, washed with Ham's F12K medium containing 10% serum, and then suspended in PBS (phosphate-buffered saline) at a concentration of 3×10^7 cells/ml. The aliquot of 100 μl was transplanted into the right central flank region of a 7-week old, male BALB/c nu/nu mouse using a syringe with a 25 gauge needle. After the size of the resulting tumor mass was measured on the 25th day after the transplantation, the mice were divided into groups of five animals (the average tumor volume of each group was between […]), and then the treatment with test compounds was commenced. Tumor volume was calculated according to the formulation: tumor volume =0.5×(the longest diameter)×(the shortest diameter)^2 after two-dimensional measurement of the tumor mass by a caliper. The test compounds were suspended in 0.5% methylcellulose/physiological saline, and subcutaneously injected at a volume of 10 μl/g body weight.
Thereafter the test compounds were administered every Monday, Wednesday and Friday for 3 weeks. The inhibitory action was assessed on the 46th day after the transplanation by the ratio of tumor volume gain of treated groups to that of the control group(T/C %). The dosage of the test compounds was expressed as mg/kg/shot.

For assay [2], the system named is Prostate carcinoma cell line PC-3. Briefly: In vitro prostate carcinoma cell proliferation inhibition assay (MTT). Conditions: read-out: IC50 PC-3. The assay is classed as cell-based, human. How it is done:
In vitro prostate carcinoma cell proliferation inhibition assay
Prostate carcinoma cell line PC-3 cells were suspended in Ham's F-12K medium (Flow Laboratories or Dainippon Pharmaceutical Co,. Ltd) supplemented with 10% fetal calf serum, and seeded in a 96-well microtiter plate (5000 cells/50 or 75 μl/well). The plate was then incubated in a 5% CO2 incubator at 37° C. On the following day, a 3-fold dilution series with the medium with serum of the test compound in N,N-dimethylformamide (DMF) (50 or 25 μl/well) were added (final volume […]) and the plate was incubated for another 3 days. Following addition of a thiazolyl-tetrazolium (MTT) solution, absorbance based on the viable cell number was determined "Tada et al., Journal of Immunological Methods, 93, 157 (1986)". With the estimated cell number in the control group to which the test compound solution was not added being taken as 100%, the percentage of the estimated cell number in each test group was determined and the concentration (IC50 value) of the test compound which was required for 50% inhibition of the estimated viable cell number in the control group was calculated.

The subject of assay [3] is human prostatic carcinoma cells PC-3. Briefly: Inhibitory action against the growth of subcutaneously implanted tumor (Test Example 3, oral dosing). The assay is classed as in vivo, human; BALB/c nu/nu mouse. Particulars: 75 mg/kg p.o., once a day for 3 weeks. On the procedure: (§1) Inhibitory action of the test compound against the growth of subcutaneously implanted tumor
The human prostatic carcinoma cells PC-3, which are maintained in vitro, were harvested using 0.05% trypsin, washed with Ham's F12K medium containing 10% serum, and then suspended in PBS (phosphate-buffered saline) at a concentration of 3×10^7 cells/ml. The aliquot of 100 μl was transplanted into the right central flank region of a 7-week old, male BALB/c nu/nu mouse using a syringe with a 25 guage needle. After the size of the resulting tumor mass was measured on the 32nd day after the transplantation, the mice were divided into groups of five animals (the average tumor volume of each group was between 273 and 293 mm^3), and then the treatment with test compound was commenced. Tumor volume was calculated according to the formulation: tumor volume =0.5×(the longest diameter)×(the shortest diameter)2 after two-dimensional measurement of the tumor mass by a caliper. The test compound was suspended in 0.5% methylcellulose/physiological saline, and orally administered at a volume of 10 μl/g body weight. […] The inhibitory action was assessed on the 53rd day after the transplanation, the first day after the last administration, by the ratio of tumor volume gain of treated groups to that of the control group (T/C %). The dosage of the test compounds was expressed as mg/kg/shot.

Assay [4] shares this test system. Briefly: Inhibitory action against the growth of subcutaneously implanted tumor (Test Example 4, oral dosing). Type of assay: in vivo, human; BALB/c nu/nu mouse. Particulars: once a day for 3 weeks; for Tumor volume gain: 52nd day after transplantation, mean ± SD; for T/C: 52nd day, ratio of tumor volume gain treated/control. On the procedure:
as §1
The human prostatic carcinoma cells PC-3, which are maintained in vitro, were harvested using 0.05% trypsin, washed with Ham's F12K medium containing 10% serum, and then suspended in PBS (phosphate-buffered saline) at a concentration of 3×10^7 cells/ml. The aliquot of 100 μl was transplanted into the right central flank region of a 7-week old, male BALB/c nu/nu mouse using a syringe with a 25 gauge needle. After the size of the resulting tumor mass was measured on the 31st day after the transplanation, the mice were divided into groups of five animals (the average tumor volume of each group was between 273 and 293 mm^3), and then the treatment with test compound was commenced. Tumor volume was calculated according to the formulation: tumor volume=0.5×(the longest diameter)×(the shortest diameter)^2 after two-dimensional measurement of the tumor mass by a caliper. The test compound was suspended in 0.5% methylcellulose/physiological saline, and orally administered at a volume of 10 μl/g body weight. Thereafter the test compound was administered once a day for 3 weeks. The inhibitory action was assessed on the 52nd day after the transplanation, the first day after the last administration, by the ratio of tumor volume gain of treated groups to that of the control group (T/C %). The dosage of the test compound is expressed as mg/kg/shot.

Where [5] appears, read: Homo sapiens, 72 h, PC-3, 3 days incubation, MTT.

Counter-ions that a name gives are not always drawn. Like-named read-outs stand apart in the source and are kept apart here. Where only a bound is given, the exact number is not on record here.

Broadly, the T/C is the result in the treated group divided by that in the control group, in per cent. On to `Cn1c(SCc2ccc(C(=O)c3ccc(Cl)cc3)cc2)nc2ccsc2c1=O` [Example 7, 2-[4-(4-Chlorobenzoyl)benzyl]thio-3-methylthieno-[3,2-d]pyrimidin-4(3H)-one], for which, in assay [1], the Tumor volume gain was 445 ± 110 mm^3 and the T/C is listed as 49%. Taken in the same sequence, the figures for `Cc1cccc2nc(SCc3ccc(C(=O)c4ccc(Cl)cc4)cc3)n(C)c(=O)c12` [Example 42, 2-[4-(4-Chlorobenzoyl)benzylthio]-3,5-dimethyl-quinazolin-4-one] were 329 ± 252 mm^3 and 36%. Usually IC50 stands for the concentration that inhibits the measured activity by half. On to `Cc1csc2nc(SCc3ccc(C(=O)c4ccc(OCCN5CCOCC5)cc4)cc3)n(C)c(=O)c12` [Example 148, 3,5-Dimethyl-2-[4-[4-(2-morpholinoethoxy)benzoyl]-benzylthio]thieno[2,3-d]pyrimidin-4(3H)-one], for which, in assay [2] (setting [5]), the half-maximal inhibitory concentration (IC50) is under 1.52 nM.

For the molecule `Cn1c(SCc2ccc(C(=O)c3ccc(N4CCC(N5CCCCC5)CC4)nc3)cc2)nc2ccsc2c1=O` [Example 158, 3-Methyl-2-[4-[6-(4-piperidinopiperidinyl)nicotinoyl]benzylthio]thieno[3,2-d]pyrimidin-4(3H)-one hydrochloride], the IC50 in assay [2] (setting [5]) is 4.5 nM. Still for that read-out and setting: as for `CCc1c(C)nc2n(Cc3ccc(C(=O)c4ccc(Cl)cc4)cc3)ccn2c1=O` [Example 169, 1-[4-(4-Chlorobenzoyl)benzyl]-6-ethyl-7-methylimidazo[1,2-a]pyrimidin-5(1H)-one], the figure is under 1.52 nM. The same measure, in the same setting: for `Cc1nc2n(Cc3ccc(C(=O)c4ccc(Cl)cc4)cc3)ccn2c(=O)c1C(C)C` [Example 181, 1-[4-(4-Chlorobenzoyl)benzyl]-6-isopropyl-7-methylimidazo[1,2-a]pyrimidin-5(1H)-one] the value was 3 nM; for `Cc1cccc2nc(SCc3ccc(C(=O)c4ccc(C(=O)N5CCN(C)CC5)cc4)cc3)n(C)c(=O)c12` [Example 184, 3,5-Dimethyl-2-[4-[4-(4-methylpiperazinocarbonyl)benzoyl]benzyl]thio-4(3H)-quinazolinone], under 1.52 nM.

On to `O=C(c1ccc(Cl)cc1)c1ccc(Cn2ccn3c(=O)c4c(nc23)CCCC4)cc1` [Example 189, 1-[4-(4-Chlorobenzoyl)benzyl]-6,7,8,9-tetrahydroimidazo[2,1-b]quinazolin-5(1H)-one], for which the half-maximal inhibitory concentration (IC50) in assay [2] (setting [5]) was 1.9 nM. In addition, the Tumor volume gain in assay [3] (53rd day after transplantation, mean ± SD) amounted to 697 ± 199 mm^3. Also, the T/C in assay [3] (53rd day, ratio of tumor volume gain treated/control) was 53%. On to `Cc1cccc2nc(SCc3ccc(C(=O)c4ccc(C(=O)N5CCC(N6CCCCC6)CC5)cc4)cc3)n(C)c(=O)c12` [Example 193, 3,5-Dimethyl-2-[4-[4-(4-piperidinopiperidinocarbonyl)benzoyl]benzyl]thio-4(3H)-quinazolinone], for which the IC50 in assay [2] (setting [5]) was found to be 2 nM. The same measure, in the same setting: for `CCc1cccc2nc(SCc3ccc(C(=O)c4ccc(Cl)cc4)cc3)n(C)c(=O)c12` [Example 214, 2-[4-(4-Chlorobenzoyl)benzyl]thio-5-ethyl-3-methyl-4(3H)-quinazolinone] the value was 5.2 nM. In the case of `CCOP(=O)(OCC)Oc1ccc(C(=O)c2ccc(CSc3nc4cccc(C)c4c(=O)n3C)cc2)cc1` [Example 217, 2-[4-(4-Diethylphosphonooxybenzoyl)benzylthio]-3,5-dimethyl-4(3H)-quinazolinone], the IC50 in assay [2] (PC-3, 3 days incubation, MTT) is under 1.52 nM. Turning to `Cc1cccc2nc(SCc3ccc(C(=O)c4ccc(OC(=O)N(C)C)cc4)cc3)n(C)c(=O)c12` [Example 228, 3,5-Dimethyl-2-[4-[4-(N,N-dimethylcarbamoyloxy)-benzoyl]benzylthio]-4(3H)-quinazolinone], the IC50 in assay [2] (Homo sapiens, 72 h) stood at 7 nM. Consider `Cc1cccc2nc(SCc3ccc(C(=O)c4ccc(OCC(=O)c5ccccc5)cc4)cc3)n(C)c(=O)c12` [Example 234, 3,5-Dimethyl-2-[4-(4-phenacyloxybenzoyl)benzylthio]-4-(3H)-quinazolinone], for which, in assay [2] (setting [5]), the concentration for half-maximal inhibition (IC50) is 7 nM. The same measure, in the same setting: as for `CCn1c(SC)nc2c(ccn2Cc2ccc(C(=O)c3ccc(Cl)cc3)cc2)c1=O` [Example 252, 7-[4-(4-Chlorobenzoyl)benzyl]-3-ethyl-2-methylthio-7H-pyrrolo[2,3-d]pyrimidin-4-one], the figure is under 1.52 nM.

As to `O=C(c1ccc(Cn2ccn3c(=O)c4c(nc23)CCCC4)cc1)c1ccc(C(F)(F)F)cc1` [Example 329, 1-[4-(4-Trifluorobenzoyl)benzyl]-6,7,8,9-tetrahydroimidazo[2,1-b]quinazolin-5(1H)-one], the 50% inhibitory concentration (IC50) in assay [2] (setting [5]) amounted to 2.6 nM.

As for `Cc1c(SCc2ccc(C(=O)c3ccc(C(F)(F)F)cc3)cc2)nc2n(c1=O)CCCS2` [Example 365, 3,4-Dihydro-7-methyl-8-(4-(4-trifluoromethylbenzoyl)benzylthio)-2H,6H-pyrimido[2,1-b][1,4]thiazin-6-one], in assay [2] (setting [5]), the concentration for half-maximal inhibition (IC50) amounted to 6.2 nM. As for `Cc1c(OCc2ccc(C(=O)c3ccc(C(F)(F)F)cc3)cc2)nc2n(c1=O)CCCC2` [Example 385, 3-Methyl-2-[4-(4-trifluoromethylbenzoyl)benzyloxy]-6,7,8,9-tetrahydro-4H-pyrido[1,2-a]pyrimidin-4-one], the concentration for half-maximal inhibition (IC50) in assay [2] (setting [5]) came out at 4.6 nM. Besides, the figures for the Tumor volume gain in assay [4] (25 mg/kg p.o.), in assay [4] (50 mg/kg p.o.) and in assay [4] (75 mg/kg p.o.) were 893 ± 247 mm^3, 732 ± 156 mm^3 and 596 ± 176 mm^3, respectively. In addition, the T/C is recorded as 63% in assay [4] (25 mg/kg p.o.), 52% in assay [4] (50 mg/kg p.o.) and 42% in assay [4] (75 mg/kg p.o.). As for `Cc1ccc(C(=O)c2ccc(COc3nc4n(c(=O)c3C)CCCS4)cc2)cc1` [Example 406, 7-Methyl-8-[4-(4-methylbenzoyl)benzyloxy]-3,4-dihydro-2H,6H-pyrimido[2,1-b][1,3]thiazin-6-one], the IC50 in assay [2] (setting [5]) is 0.94 nM.
